Molecular target: T1, full length AKT E17K (Homo sapiens, UniProt P31749, E17K)
T1 construct: host or cells: HEK-293 (ATCC CRL-1573)
Experiment: NanoBRET Target Engagement (TE) Assay
Format: cell-based
Conditions: competitive tracer displacement in living cells, read-out: AKT1 E17K IC50
Outline: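 Compound and tracer incubated 2 h before luminescence at donor 450 nm and acceptor 600 nm, with extracellular signal inhibited. EC50 by sigmoidal variable-slope regression.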

T1 sequence (P31749 whole entry E17K): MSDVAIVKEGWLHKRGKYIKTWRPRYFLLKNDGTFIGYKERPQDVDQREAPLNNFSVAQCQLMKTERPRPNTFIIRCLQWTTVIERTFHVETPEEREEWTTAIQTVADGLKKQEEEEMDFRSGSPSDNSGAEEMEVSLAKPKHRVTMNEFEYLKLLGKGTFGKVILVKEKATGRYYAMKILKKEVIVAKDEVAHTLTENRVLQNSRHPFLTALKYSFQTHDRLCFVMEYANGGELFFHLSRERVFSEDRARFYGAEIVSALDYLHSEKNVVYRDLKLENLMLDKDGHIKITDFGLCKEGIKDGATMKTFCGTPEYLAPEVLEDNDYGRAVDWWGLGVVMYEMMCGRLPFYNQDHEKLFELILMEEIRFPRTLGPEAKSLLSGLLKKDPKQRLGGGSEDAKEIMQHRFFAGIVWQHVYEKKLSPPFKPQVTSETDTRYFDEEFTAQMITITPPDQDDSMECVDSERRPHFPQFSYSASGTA

Structure (SMILES) | IC50 [nM]
N#Cc1cc(NCc2ccc(-n3c(-c4cccnc4N)nc4cccnc43)cc2)ncn1 [Example 135, 6-((4-(2-(2-aminopyridin-3-yl)-3H-imidazo[4,5-b]pyridin-3-yl)benzyl)amino)pyrimidine-4-carbonitrile] | 600 to 10000
N#Cc1cc(C(=O)N2CCN(Cc3ccc(-n4c(-c5cccnc5N)nc5cc(-c6ccccc6)cnc54)cc3)CC2)ccn1 [Example 137, 4-(4-(4-(2-(2-Aminopyridin-3-yl)-6-phenyl-3H-imidazo[4,5-b]pyridin-3-yl)benzyl)piperazine-1-carbonyl)picolinonitrile] | 600 to 10000
N#Cc1cccc(C(=O)N2CCN(Cc3ccc(-n4c(-c5cccnc5N)nc5ccc(-c6ccccc6)nc54)cc3)CC2)n1 [Example 138, 6-(4-(4-(2-(2-Aminopyridin-3-yl)-5-phenyl-3H-imidazo[4,5-b]pyridin-3-yl)benzyl)piperazine-1-carbonyl)picolinonitrile] | 60 to 600
N#Cc1cncc(C(=O)N2CCN(Cc3ccc(-n4c(-c5cccnc5N)nc5ccc(-c6ccccc6)nc54)cc3)CC2)c1 [Example 139, 5-(4-(4-(2-(2-Aminopyridin-3-yl)-5-phenyl-3H-imidazo[4,5-b]pyridin-3-yl)benzyl)piperazine-1-carbonyl)nicotinonitrile] | 600 to 10000
N#Cc1ccnc(C(=O)N2CCN(Cc3ccc(-n4c(-c5cccnc5N)nc5ccc(-c6ccccc6)nc54)cc3)CC2)c1 [Example 140, 2-(4-(4-(2-(2-Aminopyridin-3-yl)-5-phenyl-3H-imidazo[4,5-b]pyridin-3-yl)benzyl)piperazine-1-carbonyl)isonicotinonitrile] | 60 to 600
N#Cc1nccc(C(=O)N2CCN(Cc3ccc(-n4c(-c5cccnc5N)nc5ccc(-c6ccccc6)nc54)cc3)CC2)n1 [Example 141, 4-(4-(4-(2-(2-Aminopyridin-3-yl)-5-phenyl-3H-imidazo[4,5-b]pyridin-3-yl)benzyl)piperazine-1-carbonyl)pyrimidine-2-carbonitrile] | < 15
N#Cc1ccc(C(=O)N2CCN(Cc3ccc(-n4c(-c5cccnc5N)nc5ccc(-c6ccccc6)nc54)cc3)CC2)nc1 [Example 142, 6-(4-(4-(2-(2-Aminopyridin-3-yl)-5-phenyl-3H-imidazo[4,5-b]pyridin-3-yl)benzyl)piperazine-1-carbonyl)nicotinonitrile] | 600 to 10000
N#Cc1ncccc1C(=O)N1CCN(Cc2ccc(-n3c(-c4cccnc4N)nc4ccc(-c5ccccc5)nc43)cc2)CC1 [Example 143, 3-(4-(4-(2-(2-Aminopyridin-3-yl)-5-phenyl-3H-imidazo[4,5-b]pyridin-3-yl)benzyl)piperazine-1-carbonyl)picolinonitrile] | 60 to 600
N#Cc1cnccc1C(=O)N1CCN(Cc2ccc(-n3c(-c4cccnc4N)nc4ccc(-c5ccccc5)nc43)cc2)CC1 [Example 144, 4-(4-(4-(2-(2-Aminopyridin-3-yl)-5-phenyl-3H-imidazo[4,5-b]pyridin-3-yl)benzyl)piperazine-1-carbonyl)nicotinonitrile] | 600 to 10000
N#Cc1ccncc1C(=O)N1CCN(Cc2ccc(-n3c(-c4cccnc4N)nc4ccc(-c5ccccc5)nc43)cc2)CC1 [Example 145, 3-(4-(4-(2-(2-Aminopyridin-3-yl)-5-phenyl-3H-imidazo[4,5-b]pyridin-3-yl)benzyl)piperazine-1-carbonyl)isonicotinonitrile] | 600 to 10000
N#Cc1cccnc1C(=O)N1CCN(Cc2ccc(-n3c(-c4cccnc4N)nc4ccc(-c5ccccc5)nc43)cc2)CC1 [Example 146, 2-(4-(4-(2-(2-Aminopyridin-3-yl)-5-phenyl-3H-imidazo[4,5-b]pyridin-3-yl)benzyl)piperazine-1-carbonyl)nicotinonitrile] | 600 to 10000
N#Cc1ccnc(C(=O)NCc2ccc(-n3c(-c4cccnc4N)nc4cccnc43)cc2)c1 [Example 147, N-(4-(2-(2-Aminopyridin-3-yl)-3H-imidazo[4,5-b]pyridin-3-yl)benzyl)-4-cyanopicolinamide] | 600 to 10000
N#Cc1nccc(C(=O)NCc2ccc(-n3c(-c4cccnc4N)nc4cccnc43)cc2)n1 [Example 148, N-(4-(2-(2-Aminopyridin-3-yl)-3H-imidazo[4,5-b]pyridin-3-yl)benzyl)-2-cyanopyrimidine-4-carboxamide] | 600 to 10000
N#Cc1ccnc(C(=O)N2CCN(Cc3ccc(-n4c(-c5cccnc5N)nc5cccnc54)cc3)CC2)c1 [Example 149, 2-(4-(4-(2-(2-Aminopyridin-3-yl)-3H-imidazo[4,5-b]pyridin-3-yl)benzyl)piperazine-1-carbonyl)isonicotinonitrile] | 600 to 10000
N#Cc1ccnc(C(=O)NC2CCN(Cc3ccc(-n4c(-c5cccnc5N)nc5ccc(-c6ccccc6)nc54)cc3)CC2)c1 [Example 150, N-(1-(4-(2-(2-Aminopyridin-3-yl)-5-phenyl-3H-imidazo[4,5-b]pyridin-3-yl)benzyl)piperidin-4-yl)-4-cyanopicolinamide] | 60 to 600
N#Cc1nccc(C(=O)NC2CCN(Cc3ccc(-n4c(-c5cccnc5N)nc5ccc(-c6ccccc6)nc54)cc3)CC2)n1 [Example 151, N-(1-(4-(2-(2-Aminopyridin-3-yl)-5-phenyl-3H-imidazo[4,5-b]pyridin-3-yl)benzyl)piperidin-4-yl)-2-cyanopyrimidine-4-carboxamide] | < 15
N#Cc1nccc(C(=O)N2CCN(Cc3ccc(-n4c(-c5cccnc5N)nc5cccnc54)cc3)CC2)n1 [Example 152, 4-(4-(4-(2-(2-aminopyridin-3-yl)-3H-imidazo[4,5-b]pyridin-3-yl)benzyl)piperazine-1-carbonyl)pyrimidine-2-carbonitrile] | 60 to 600
N#Cc1ncccc1C(=O)N1CCN(Cc2ccc(-n3c(-c4cccnc4N)nc4cccnc43)cc2)CC1 [Example 153, 3-(4-(4-(2-(2-Aminopyridin-3-yl)-3H-imidazo[4,5-b]pyridin-3-yl)benzyl)piperazine-1-carbonyl)picolinonitrile] | 600 to 10000

Second part, the compound after the results:

IC50 [nM] | Structure (SMILES)
600 to 10000 | N#Cc1cnccc1C(=O)N1CCN(Cc2ccc(-n3c(-c4cccnc4N)nc4cccnc43)cc2)CC1 [Example 154, 4-(4-(4-(2-(2-Aminopyridin-3-yl)-3H-imidazo[4,5-b]pyridin-3-yl)benzyl)piperazine-1-carbonyl)nicotinonitrile]
600 to 10000 | N#Cc1ccncc1C(=O)N1CCN(Cc2ccc(-n3c(-c4cccnc4N)nc4cccnc43)cc2)CC1 [Example 155, 3-(4-(4-(2-(2-Aminopyridin-3-yl)-3H-imidazo[4,5-b]pyridin-3-yl)benzyl)piperazine-1-carbonyl)isonicotinonitrile]
15 to 60 | CN(c1ccnc(C#N)n1)C1CCN(Cc2ccc(-n3c(-c4cccnc4N)nc4ccc(-c5ccccc5)nc43)cc2)CC1 [Example 156, 4-((1-(4-(2-(2-Aminopyridin-3-yl)-5-phenyl-3H-imidazo[4,5-b]pyridin-3-yl)benzyl)piperidin-4-yl)(methyl)amino)pyrimidine-2-carbonitrile]
600 to 10000 | N#Cc1ccc(NC2CCN(Cc3ccc(-n4c(-c5cccnc5N)nc5cccnc54)cc3)CC2)cn1 [Example 157, 5-((1-(4-(2-(2-aminopyridin-3-yl)-3H-imidazo[4,5-b]pyridin-3-yl)benzyl)piperidin-4-yl)amino)picolinonitrile]
15 to 60 | N#Cc1cc(NC2CCN(Cc3ccc(-n4c(-c5cccnc5N)nc5ccc(-c6ccccc6)nc54)cc3)CC2)cnn1 [Example 158, 5-((1-(4-(2-(2-Aminopyridin-3-yl)-5-phenyl-3H-imidazo[4,5-b]pyridin-3-yl)benzyl)piperidin-4-yl)amino)pyridazine-3-carbonitrile]
15 to 60 | N#Cc1cc(N2CCN(Cc3ccc(-n4c(-c5cccnc5N)nc5ccc(-c6ccccc6)nc54)cc3)CC2)cnn1 [Example 159, 5-(4-(4-(2-(2-Aminopyridin-3-yl)-5-phenyl-3H-imidazo[4,5-b]pyridin-3-yl)benzyl)piperazin-1-yl)pyridazine-3-carbonitrile]
60 to 600 | N#Cc1nccnc1C(=O)N1CCN(Cc2ccc(-n3c(-c4cccnc4N)nc4ccc(-c5ccccc5)nc43)cc2)CC1 [Example 163, 3-(4-(4-(2-(2-aminopyridin-3-yl)-5-phenyl-3H-imidazo[4,5-b]pyridin-3-yl)benzyl)piperazine-1-carbonyl)pyrazine-2-carbonitrile]
600 to 10000 | N#Cc1nccnc1C(=O)N1CCN(Cc2ccc(-n3c(-c4cccnc4N)nc4cccnc43)cc2)CC1 [Example 164, 3-(4-(4-(2-(2-Aminopyridin-3-yl)-3H-imidazo[4,5-b]pyridin-3-yl)benzyl)piperazine-1-carbonyl)pyrazine-2-carbonitrile]
600 to 10000 | N#Cc1ccc(C(=O)NC2CCN(Cc3ccc(-n4c(-c5cccnc5N)nc5cc(-c6ccccc6)cnc54)cc3)CC2)cn1 [Example 165, N-(1-(4-(2-(2-aminopyridin-3-yl)-6-phenyl-3H-imidazo[4,5-b]pyridin-3-yl)benzyl)piperidin-4-yl)-6-cyanonicotinamide]
15 to 60 | N#Cc1ccc(C(=O)N2CCN(Cc3ccc(-n4c(-c5cccnc5N)nc5ccc(-c6ccccc6)nc54)cc3)CC2)cn1 [Example 166, 5-(4-(4-(2-(2-Aminopyridin-3-yl)-5-phenyl-3H-imidazo[4,5-b]pyridin-3-yl)benzyl)piperazine-1-carbonyl)picolinonitrile]
60 to 600 | N#Cc1ccc(C(=O)NC2CCN(Cc3ccc(-n4c(-c5cccnc5N)nc5ccc(-c6ccccc6)nc54)cc3)CC2)cn1 [Example 167, N-(1-(4-(2-(2-Aminopyridin-3-yl)-5-phenyl-3H-imidazo[4,5-b]pyridin-3-yl)benzyl)piperidin-4-yl)-6-cyanonicotinamide]
600 to 10000 | N#Cc1cccc(C(=O)NCc2ccc(-n3c(-c4cccnc4N)nc4cc(-c5ccccc5)cnc43)cc2)n1 [Example 168, N-(4-(2-(2-Aminopyridin-3-yl)-6-phenyl-3H-imidazo[4,5-b]pyridin-3-yl)benzyl)-6-cyanopicolinamide]
60 to 600 | N#Cc1cc(C(=O)NCc2ccc(-n3c(-c4cccnc4N)nc4cc(-c5ccccc5)cnc43)cc2)ccn1 [Example 169, N-(4-(2-(2-Aminopyridin-3-yl)-6-phenyl-3H-imidazo[4,5-b]pyridin-3-yl)benzyl)-2-cyanoisonicotinamide]

From patent US12209087B2, “AKT1 modulators” (Alterome Therapeutics, Inc., priority 2022, dated 2025)
